Structures can show the parent of a compound that is named as a salt. Where two headings read alike, the source gives them in different places.
Key:
[1] = target: T1, ZmDRIK1 (DROUGHT RESPONSIVE INACTIVE KINASE 1), kinase domain (Zea mays, UniProt C0P4K9); assay: biochemical
T1 construct: gene ZEAMMB73_Zm00001d028770; ZmDRIK1-KD R187-S514 (kinase domain)
T1 sequence (C0P4K9 187-514): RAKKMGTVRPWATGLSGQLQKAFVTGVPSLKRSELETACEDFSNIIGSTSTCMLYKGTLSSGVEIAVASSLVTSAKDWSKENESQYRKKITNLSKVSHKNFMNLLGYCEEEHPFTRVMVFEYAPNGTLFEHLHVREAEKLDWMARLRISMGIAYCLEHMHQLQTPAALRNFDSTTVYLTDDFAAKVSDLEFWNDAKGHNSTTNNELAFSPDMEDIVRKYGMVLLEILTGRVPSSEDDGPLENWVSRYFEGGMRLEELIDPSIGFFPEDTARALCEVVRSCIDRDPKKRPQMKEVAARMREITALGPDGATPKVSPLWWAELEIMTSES

ZmDRIK1-K217-S514 = target: T2, ZmDRIK1-K217-S514 (Zea mays, UniProt C0P4K9); assay: biochemical
T2 construct: kinase domain, K217-S514
T2 sequence (C0P4K9 1-514): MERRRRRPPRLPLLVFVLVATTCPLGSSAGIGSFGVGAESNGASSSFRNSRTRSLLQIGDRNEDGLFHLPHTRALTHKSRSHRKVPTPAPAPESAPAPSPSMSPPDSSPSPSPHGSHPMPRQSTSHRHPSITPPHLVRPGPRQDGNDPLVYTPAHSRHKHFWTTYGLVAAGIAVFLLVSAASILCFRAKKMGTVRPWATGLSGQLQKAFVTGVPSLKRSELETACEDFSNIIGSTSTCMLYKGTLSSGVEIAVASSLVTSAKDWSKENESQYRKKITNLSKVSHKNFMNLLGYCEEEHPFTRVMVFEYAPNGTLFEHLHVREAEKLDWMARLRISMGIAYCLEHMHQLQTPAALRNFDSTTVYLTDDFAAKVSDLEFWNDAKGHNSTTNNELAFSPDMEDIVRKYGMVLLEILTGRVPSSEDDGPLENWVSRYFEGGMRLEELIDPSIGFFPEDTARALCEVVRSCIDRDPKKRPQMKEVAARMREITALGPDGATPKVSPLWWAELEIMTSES

[2] = target: T1, ZmDRIK1 (DROUGHT RESPONSIVE INACTIVE KINASE 1), kinase domain; assay: ITC; cocrystal structure at […] Å; DSF (ΔTm > […] °C); type: binding
ZmDRIK1-R187-P492 = target: T3, ZmDRIK1-R187-P492 (Zea mays, UniProt C0P4K9); assay: biochemical
T3 construct: kinase domain, R187-P492
T3 sequence (C0P4K9 1-514): T2 sequence (C0P4K9 1-514)

ZmDRIK1-K217-P492 = target: T4, ZmDRIK1-K217-P492 (Zea mays, UniProt C0P4K9); assay: biochemical
T4 construct: kinase domain, K217-P492
T4 sequence (C0P4K9 1-514): T2 sequence (C0P4K9 1-514)

[3] = read-out: dTm B, sheet ZmDRIK1-R187-S514;, DSF, Boltzmann fit, 0.1% DMSO
[4] = read-out: dTm B, sheet ZmDRIK1-K217-S514;, DSF, Boltzmann fit, 0.1% DMSO
[5] = read-out: dTm B, DSF, Boltzmann fit, 0.1% DMSO
[6] = read-out: dTm B, sheet ZmDRIK1-K217-P492;, DSF, Boltzmann fit, 0.1% DMSO

SMILES	ΔTm at 10 µM [1, 3] [°C]	ΔTm at 10 µM (ZmDRIK1-K217-S514; [4]) [°C]	Kd [2] [nM]	ΔTm at 10 µM (ZmDRIK1-R187-P492; [5]) [°C]	ΔTm at 10 µM (ZmDRIK1-K217-P492; [6]) [°C]	ΔTm at 10 µM ([1]; read-out: dTm B) [°C]	ΔTm at 10 µM (ZmDRIK1-K217-S514; read-out: dTm B) [°C]	ΔTm at 10 µM (ZmDRIK1-R187-P492; read-out: dTm B) [°C]	ΔTm at 10 µM (ZmDRIK1-K217-P492; read-out: dTm B) [°C]
Cc1cc(Nc2cc(N3CCN(C)CC3)nc(Sc3ccc(NC(=O)C4CC4)cc3)n2)n[nH]1 [VX-680 (Tozasertib)]	-0.713	-0.694		-0.37	-1.16				
NC(=O)c1ccc(N(C(N)=O)c2c(F)cccc2F)nc1-c1ccc(F)cc1F [VX-702]	-0.444	-0.374		-0.499	-0.792				
O=c1ncn2nc(Sc3ccc(F)cc3F)ccc2c1-c1c(Cl)cccc1Cl [VX-745]	-0.881	-0.414		-0.394	-1.03				
COc1cc2/c(=N/c3ccc(Br)cc3F)nc[nH]c2cc1OCC1CCN(C)CC1 [Vandetanib (ZD6474)]	-0.824	-0.239		-0.154	-0.91				
C[C@@H]1COC(Nc2ccc3ncnc(Nc4ccc(OCc5nccs5)c(Cl)c4)c3c2)=N1 [Varlitinib]	-0.97	-0.516		-0.314	-0.993				
Clc1ccc(Nc2nnc(Cc3ccncc3)c3ccccc23)cc1 [Vatalanib (PTK787) 2HCl]	-0.775	-0.391		-0.124	-1.11				
CCCS(=O)(=O)Nc1ccc(F)c(C(=O)c2c[nH]c3ncc(-c4ccc(Cl)cc4)cc23)c1F [Vemurafenib (PLX4032)]	-21.5	-0.89		-7.37	-0.0662				
CC[C@@H]1C(=O)N(C)c2cnc(Nc3ccc(C(=O)N[C@H]4CC[C@H](N5CCN(CC6CC6)CC5)CC4)cc3OC)nc2N1C(C)C [Volasertib (BI 6727)]	-0.792	-0.29		-0.282	-1.3				
COc1ccc(N(C(=O)Oc2c(C)cccc2C)c2ccnc(Nc3ccc(N4CCN(C)CC4)cc3)n2)c(OC)c1 [WH-4-023]						-0.841	-0.646	-0.703	-0.826
COc1cc2ncnc(Nc3ccc(O)c(Br)c3)c2cc1OC [WHI-P154]	0.428	2.03		1.76	0.694				
COC[C@H]1OC(=O)c2coc3c2[C@@]1(C)C1=C(C3=O)[C@@H]2CCC(=O)[C@@]2(C)C[C@H]1OC(C)=O [Wortmannin]	-0.735	-0.299		-0.289	-1.08				
CCOc1cc(N2CCC(O)CC2)ccc1Nc1ncc2c(n1)N(C)c1ccccc1C(=O)N2C [XMD8-92]	-0.666	-0.663		-0.38	-1.16				
C[C@@H](N)[C@H]1CC[C@H](C(=O)Nc2ccncc2)CC1 [Y-27632 2HCl]	-0.584	-0.475		-0.155	-1.25				
CC(C)N(CCC(=O)c1ccc2ccccc2c1)Cc1ccccc1 [ZM 39923 HCl]	-1.58	-0.827		-0.636	-2.03				
COc1cc2ncnc(Nc3ccc(Cl)cc3F)c2cc1OC [ZM 306416]	-0.525	-0.336		-0.383	-0.758				
Cc1cc(F)c(Nc2ncnc3cc(OCc4ccccc4)ccc23)cc1O [ZM 323881 HCl]	-1.06	-0.146		-1.9	-0.816				
Cc1ccc(NC(=O)c2cccc(N(C)C)c2)cc1NC(=O)c1ccc(O)cc1 [ZM 336372]	-1	-0.418		-0.214	-0.965				
COc1cc2c(Nc3ccc(NC(=O)c4ccccc4)cc3)ncnc2cc1OCCCN1CCOCC1 [ZM 447439]	-0.965	0.111		0.124	-0.314				
CO[C@H]1C[C@@H]2CC[C@@H](C)[C@@](O)(O2)C(=O)C(=O)N2CCCC[C@H]2C(=O)O[C@H]([C@H](C)C[C@@H]2CC[C@H](n3cnnn3)[C@H](OC)C2)CC(=O)[C@H](C)/C=C(\C)[C@@H](O)[C@@H](OC)C(=O)[C@H](C)C[C@H](C)/C=C/C=C/C=C/1C [Zotarolimus(ABT-578)]	-0.396	-0.269		-0.286	-0.534				

Now from value to molecule, other results behind:

ΔTm at 10 µM [1, 3] [°C]	ΔTm at 10 µM (ZmDRIK1-K217-S514; [4]) [°C]	Kd [2] [nM]	ΔTm at 10 µM (ZmDRIK1-R187-P492; [5]) [°C]	ΔTm at 10 µM (ZmDRIK1-K217-P492; [6]) [°C]	SMILES	ΔTm at 10 µM ([1]; read-out: dTm B) [°C]	ΔTm at 10 µM (ZmDRIK1-K217-S514; read-out: dTm B) [°C]	ΔTm at 10 µM (ZmDRIK1-R187-P492; read-out: dTm B) [°C]	ΔTm at 10 µM (ZmDRIK1-K217-P492; read-out: dTm B) [°C]
4.28	4.13	551	4.32	3.49	Cc1cc(Nc2cc(N3CCN(C)CC3)nc(/C=C/c3ccccc3)n2)n[nH]1 [ENMD-2076]				
-0.643	-0.731		-0.498	-1.19	c1cncc(CN2CCC(n3ncc4c(N5CCOCC5)nc(-c5ccc6[nH]ccc6c5)nc43)CC2)c1 [WAY-600]				
-3.39	-2.48		-2	-4.29	C[C@H](NC(=O)/C(C#N)=C/c1cccc(Br)n1)c1ccccc1 [WP1066]				
-0.687	-0.255		0.97	-1.11	COC(=O)Nc1ccc(-c2nc(N3CCOCC3)c3cnn(C4CCN(C(=O)OC)CC4)c3n2)cc1 [WYE-354]				
-0.897	-0.0548		-0.00788	-0.696	C=CC(=O)Nc1cccc(Oc2nc(Nc3ccc(N4CCN(C)CC4)cc3)ncc2Cl)c1 [WZ3146]				
-1.27	-0.557		-0.434	-1.2	C=CC(=O)Nc1cccc(Oc2nc(Nc3ccc(N4CCN(C)CC4)cc3OC)ncc2Cl)c1 [WZ4002]				
-0.786	-0.358		-0.432	-1.1	CCC(=O)Nc1cccc(Oc2nc(Nc3ccc(N4CCN(C)CC4)cc3OC)ncc2Cl)c1 [WZ4003]				
-0.927	-0.291		-0.275	-0.667	C=CC(=O)Nc1cccc(Sc2nc(Nc3ccc(N4CCN(C)CC4)cc3)ncc2Cl)c1 [WZ8040]				
-0.481	-0.368		-0.478	-0.95	O=C(Nc1ccc(-c2ccnc(Nc3ccc(N4CCOCC4)cc3)n2)cc1)C1CCCN1 (centres unmarked) [XL019]				
-0.972	0.807		-0.0333	0.134	COc1ccc(Cl)c(Nc2nc3ccccc3nc2NS(=O)(=O)c2cccc(NC(=O)C(C)(C)N)c2)c1 [XL147]				
-1.01	-0.166		-0.134	-1.02	Cc1cc(C)nc(NS(=O)(=O)c2ccc(NC(=S)NC(=O)COc3ccc(Br)cc3Cl)cc2)n1 [ZCL278]				
-1.02	-0.199		-0.113	-0.762	FC(F)c1nc2ccccc2n1-c1nc(N2CCOCC2)nc(N2CCOCC2)n1 [ZSTK474]				

Source: publication PMC7158045 (BMC Plant Biology, 2020)
